Among the data in patent US9868758B2, “Betulinic proline imidazole derivatives as HIV inhibitors” (HETERO LABS LIMITED, priority 2014, dated 2018) are IC50, AUC(0-t) and Cmax values, retold here.

Where two headings read alike, the source gives them in different places.

Data set [1] deals with HIV-1 strains, for e.g., 92HT599. The data set is described as follows: Antiviral activity: p24 estimation in HIV-1 infected MT-2 cells. The format is cell-based. The protocol: MT-2 cells were infected with required number of TCID50's of HIV-1 strains, for e.g., 92HT599. The infected cells were plated at the concentration of 30,000 cells per well in a 96 well plate. Test compound was added to the 96 well plate with the final concentration of DMSO (vehicle—not more than 1%). The plates are then incubated in a CO2 incubator for ˜96 hours (˜4 days) for viral infection. At the end of incubation period an aliquot from each well was taken for p24 estimation. The quantitation of p24 is an estimated index for antiviral activity of the compound. Percent inhibition was calculated with reference to control values (vehicle controls).
p-24 estimation was carried out using Advance biosciences kit as per the procedure detailed by supplier.

Data set [2] is described as follows: Single dose oral pharmacokinetic study. As to conditions: mouse, in vivo. The arrangement: species or system mice. Here is the method:
The test item was administered through oral route to animals (rat/mice) at 30 mg/kg dose in a suitable vehicle at 10 ml/kg dose volume. Blood samples (˜50 uL at each time point) were collected from retro-orbital plexus using K3 EDTA as anticoagulant in eppendorf tubes at defined time intervals under light ether anesthesia. The samples were centrifuged at 3500×g to separate plasma and stored at −80° C. until analysis.
Sample analysis: Test samples were analyzed using LC-MS-MS after developing fit-for-purpose method for each of test compound.

Where [3] appears, read: Human immunodeficiency virus 1, MT2, MT-2 cells, p24, read-out: Antiviral activity IC50.

In the case of `C=C(C)[C@@H]1CC[C@]2(C(=O)N3CCC[C@H]3c3nc(-c4ccccc4)cn3CCN(C)C)CC[C@]3(C)[C@H](CC[C@@H]4[C@@]5(C)CC[C@H](OC(=O)[C@H]6C[C@@H](C(=O)O)C6(C)C)C(C)(C)[C@@H]5CC[C@]43C)[C@@H]12` [Compound 5, (1R,3S)-3-((((1R,3aS,5aR,5bR,7aR,9S,11aR,11bR,13aR,13bR)-3a-((S)-2-(1-(2-(dimethylamino)ethyl)-4-phenyl-1H-imidazol-2-yl)pyrrolidine-1-carbonyl)-5a,5b,8,8,11a-pentamethyl-1-(prop-1-en-2-yl)icosahydro-1H-cyclopenta[a]chrysen-9-yl)oxy)carbonyl)-2,2-dimethylcyclobutane-1-carboxylic acid], the half-maximal inhibitory concentration (IC50) (commonly the concentration that gives 50% inhibition) in data set [1] (setting [3]) was 73.2 nM. Moreover, in data set [2] (po, 30 mg/kg), the AUC(0-t) (commonly exposure summed from dosing to a finite time, without extrapolation to infinity) worked out at 292 µg·h/mL and the Cmax (in general, the maximum level reached in the sampled fluid or tissue) was 10400 ng/mL.

For `CN(C)CCn1cc(-c2cccnc2)nc1[C@@H]1CCCN1C(=O)[C@]12CC[C@@H](C3(C)CC3)[C@@H]1[C@H]1CC[C@@H]3[C@@]4(C)CC[C@H](OC(=O)[C@H]5C[C@@H](C(=O)O)C5(C)C)C(C)(C)[C@@H]4CC[C@@]3(C)[C@]1(C)CC2` [Compound 19, (1R,3S)-3-((((1R,3aS,5aR,5bR,7aR,9S,11aR,11bR,13aR,13bR)-3a-((S)-2-(1-(2-(dimethylamino)ethyl)-4-(pyridin-3-yl)-1H-imidazol-2-yl)pyrrolidine-1-carbonyl)-5a,5b,8,8,11a-pentamethyl-1-(1-methylcyclopropyl)icosahydro-1H-cyclopenta[a]chrysen-9-yl)oxy)carbonyl)-2,2-dimethylcyclobutane-1-carboxylic acid], the half-inhibitory concentration (IC50) in data set [1] (setting [3]) is 7.76 nM. For the same molecule, in data set [2] (po, 30 mg/kg), the AUC(0-t) came out at 97.4 µg·h/mL and the Cmax is 4260 ng/mL.

In the case of `C=C(C)[C@@H]1CC[C@]2(C(=O)N3CCC[C@H]3c3nc(-c4ccccc4)cn3CCP(=O)(OCC)OCC)CC[C@]3(C)[C@H](CC[C@@H]4[C@@]5(C)CC[C@H](OC(=O)[C@H]6C[C@@H](C(=O)O)C6(C)C)C(C)(C)[C@@H]5CC[C@]43C)[C@@H]12` [Compound 22, (1R,3S)-3-((((1R,3aS,5aR,5bR,7aR,9S,11aR,11bR,13aR,13bR)-3a-((S)-2-(1-(2-(diethoxyphosphoryl)ethyl)-4-phenyl-1H-imidazol-2-yl)pyrrolidine-1-carbonyl)-5a,5b,8,8,11a-pentamethyl-1-(prop-1-en-2-yl)icosahydro-1H-cyclopenta[a]chrysen-9-yl)oxy)carbonyl)-2,2-dimethyl cyclobutane-1-carboxylic acid], the half-maximal inhibitory concentration (IC50) in data set [1] (Human immunodeficiency virus 1, MT2, read-out: Antiviral activity IC50 (nM)) was 14.9 nM. The exposure AUC(0-t) in data set [2] (Mice oral PK @30 mg/kg, plasma, read-out: AUC 0-t) is 215 µg·h/mL. In data set [2] (Mice oral PK @30 mg/kg, plasma, read-out: Cmax), the peak concentration (Cmax) was 5830 ng/mL.

Turning to `C=C(C)[C@@H]1CC[C@]2(C(=O)N3CCC[C@H]3c3nc(-c4cccnc4)cn3CCN(C)C)CC[C@]3(C)[C@H](CC[C@@H]4[C@@]5(C)CC[C@H](OC(=O)[C@H]6C[C@@H](C(=O)O)C6(C)C)C(C)(C)[C@@H]5CC[C@]43C)[C@@H]12` [Compound 6, (1R,3S)-3-((((1R,3aS,5aR,5bR,7aR,9S,11aR,11bR,13aR,13bR)-3a-((S)-2-(1-(2-(dimethylamino)ethyl)-4-(pyridin-3-yl)-1H-imidazol-2-yl)pyrrolidine-1-carbonyl)-5a,5b,8,8,11a-pentamethyl-1-(prop-1-en-2-yl)icosahydro-1H-cyclopenta[a]chrysen-9-yl)oxy)carbonyl)-2,2-dimethyl cyclobutane-1-carboxylic acid], the 50% inhibitory concentration (IC50) in data set [1] (setting [3]) was 2.55 nM. Besides, in data set [2] (po, 30 mg/kg), the AUC(0-t) was found to be 212 µg·h/mL and the peak level (Cmax) was 9460 ng/mL.

Regarding `C=C(C)[C@@H]1CC[C@]2(C(=O)N3CCC[C@H]3c3nc(C(C)(C)C)cn3CCN(C)C)CC[C@]3(C)[C@H](CC[C@@H]4[C@@]5(C)CC[C@H](OC(=O)[C@H]6C[C@@H](C(=O)O)C6(C)C)C(C)(C)[C@@H]5CC[C@]43C)[C@@H]12` [Compound 11, (1R,3S)-3-((((1R,3aS,5aR,5bR,7aR,9S,11aR,11bR,13aR,13bR)-3a-((S)-2-(4-(tert-butyl)-1-(2-(dimethylamino)ethyl)-1H-imidazol-2-yl)pyrrolidine-1-carbonyl)-5a,5b,8,8,11a-pentamethyl-1-(prop-1-en-2-yl)icosahydro-1H-cyclopenta[a]chrysen-9-yl)oxy)carbonyl)-2,2-dimethyl cyclobutane-1-carboxylic acid], the IC50 in data set [1] (setting [3]) is 3.58 nM. In data set [2] (po, 30 mg/kg), this molecule came in with an exposure AUC(0-t) of 755 µg·h/mL and a Cmax of 18100 ng/mL.

In the case of `C=C(C)[C@@H]1CC[C@]2(C(=O)N3CCC[C@H]3c3nc(-c4ccccc4)cn3CCOC)CC[C@]3(C)[C@H](CC[C@@H]4[C@@]5(C)CC[C@H](OC(=O)CC(C)(C)C(=O)O)C(C)(C)[C@@H]5CC[C@]43C)[C@@H]12` [Compound 17, 4-(((1R,3aS,5aR,5bR,7aR,9S,11aR,11bR,13aR,13bR)-3a-((S)-2-(1-(2-methoxyethyl)-4-phenyl-1H-imidazol-2-yl)pyrrolidine-1-carbonyl)-5a,5b,8,8,11a-pentamethyl-1-(prop-1-en-2-yl)icosahydro-1H-cyclopenta[a]chrysen-9-yl)oxy)-2,2-dimethyl-4-oxobutanoic acid], in data set [1] (setting [3]), the IC50 was 0.3 nM. For the same molecule, in data set [2] (po, 30 mg/kg), the exposure AUC(0-t) was found to be 271 µg·h/mL and the maximum concentration (Cmax) worked out at 13000 ng/mL.

For `C=C(C)[C@@H]1CC[C@]2(C(=O)N3CCC[C@H]3c3nc(-c4ccncc4)cn3CCN3CCCC3)CC[C@]3(C)[C@H](CC[C@@H]4[C@@]5(C)CC[C@H](OC(=O)[C@H]6C[C@@H](C(=O)O)C6(C)C)C(C)(C)[C@@H]5CC[C@]43C)[C@@H]12` [Compound 9, (1R,3S)-2,2-dimethyl-3-((((1R,3aS,5aR,5bR,7aR,9S,11aR,11bR,13aR,13bR)-5a,5b,8,8,11a-pentamethyl-1-(prop-1-en-2-yl)-3a-((S)-2-(4-(pyridin-4-yl)-1-(2-(pyrrolidin-1-yl)ethyl)-1H-imidazol-2-yl)pyrrolidine-1-carbonyl)icosahydro-1H-cyclopenta[a]chrysen-9-yl)oxy)carbonyl) cyclobutane-1-carboxylic acid], the IC50 in data set [1] (setting [3]) was 10.6 nM. Moreover, in data set [2] (po, 30 mg/kg), the exposure AUC(0-t) is 260 µg·h/mL and the peak concentration (Cmax) is 6900 ng/mL.

`C=C(C)[C@@H]1CC[C@]2(C(=O)N3CCC[C@H]3c3nc(-c4ccccc4)cn3C)CC[C@]3(C)[C@H](CC[C@@H]4[C@@]5(C)CC[C@H](OC(=O)[C@H]6C[C@@H](C(=O)O)C6(C)C)C(C)(C)[C@@H]5CC[C@]43C)[C@@H]12` [Compound 1, (1R,3S)-2,2-dimethyl-3-((((1R,3aS,5aR,5bR,7aR,9S,11aR,11bR,13aR,13bR)-5a,5b,8,8,11a-pentamethyl-3a-((S)-2-(1-methyl-4-phenyl-1H-imidazol-2-yl)pyrrolidine-1-carbonyl)-1-(prop-1-en-2-yl)icosahydro-1H-cyclopenta[a]chrysen-9-yl)oxy)carbonyl)cyclobutane-1-carboxylic acid]: the IC50 in data set [1] (setting [3]) is 6.74 nM. In data set [2] (po, 30 mg/kg), this molecule showed an exposure AUC(0-t) of 250 µg·h/mL and a Cmax of 8540 ng/mL.

`C=C(C)[C@@H]1CC[C@]2(C(=O)N3CCC[C@H]3c3nc(-c4ccccc4)cn3CCN(C)C)CC[C@]3(C)[C@H](CC[C@@H]4[C@@]5(C)CC[C@H](OC(=O)CC(C)(C)C(=O)O)C(C)(C)[C@@H]5CC[C@]43C)[C@@H]12` [Compound 16, 4-(((1R,3aS,5aR,5bR,7aR,9S,11aR,11bR,13aR,13bR)-3a-((S)-2-(1-(2-(dimethylamino)ethyl)-4-phenyl-1H-imidazol-2-yl)pyrrolidine-1-carbonyl)-5a,5b,8,8,11a-pentamethyl-1-(prop-1-en-2-yl)icosahydro-1H-cyclopenta[a]chrysen-9-yl)oxy)-2,2-dimethyl-4-oxo butanoic acid]: the IC50 in data set [1] (setting [3]) is 8.48 nM. In data set [2] (po, 30 mg/kg), this molecule came in with an area under the curve AUC(0-t) of 294 µg·h/mL and a maximum concentration (Cmax) of 9030 ng/mL.

In the case of `C=C(C)[C@@H]1CC[C@]2(C(=O)N3CCC[C@H]3c3nc(-c4ccccc4)cn3C)CC[C@]3(C)[C@H](CC[C@@H]4[C@@]5(C)CC[C@H](OC(=O)CC(C)(C)C(=O)O)C(C)(C)[C@@H]5CC[C@]43C)[C@@H]12` [Compound 15, 2,2-dimethyl-4-oxo-4-(((1R,3aS,5aR,5bR,7aR,9S,11aR,11bR,13aR,13bR)-5a,5b,8,8,11a-pentamethyl-3a-((S)-2-(1-methyl-4-phenyl-1H-imidazol-2-yl)pyrrolidine-1-carbonyl)-1-(prop-1-en-2-yl)icosahydro-1H-cyclopenta[a]chrysen-9-yl)oxy)butanoic acid], the half-maximal inhibitory concentration (IC50) in data set [1] (setting [3]) was 7.42 nM. In data set [2] (po, 30 mg/kg), the AUC(0-t) came to 376 µg·h/mL and the peak concentration (Cmax) worked out at 15300 ng/mL.

Regarding `C=C(C)[C@@H]1CC[C@]2(C(=O)N3CCC[C@H]3c3nc(-c4ccncc4)cn3CCN(C)C)CC[C@]3(C)[C@H](CC[C@@H]4[C@@]5(C)CC[C@H](OC(=O)[C@H]6C[C@@H](C(=O)O)C6(C)C)C(C)(C)[C@@H]5CC[C@]43C)[C@@H]12` [Compound 8, (1R,3S)-3-((((1R,3aS,5aR,5bR,7aR,9S,11aR,11bR,13aR,13bR)-3a-((S)-2-(1-(2-(dimethylamino)ethyl)-4-(pyridin-4-yl)-1H-imidazol-2-yl)pyrrolidine-1-carbonyl)-5a,5b,8,8,11a-pentamethyl-1-(prop-1-en-2-yl)icosahydro-1H-cyclopenta[a]chrysen-9-yl)oxy)carbonyl)-2,2-dimethyl cyclobutane-1-carboxylic acid], the IC50 in data set [1] (setting [3]) is 12.5 nM. In data set [2] (po, 30 mg/kg), the AUC(0-t) was found to be 243 µg·h/mL and the concentration peaked (Cmax) at 9080 ng/mL.
